Earlier results in patent publication US20100297230A1, “COMPOSITIONS AND METHODS FOR PROSTATE AND MENSTRUAL/MENOPAUSAL RELATED HEALTH” (priority 2009, published 2010).
Entries after “also recorded” stand apart in the source; their conditions may differ. Read-outs that look alike come from different tables or passages of the source.

Experiments:
[1] = test system: rats with prostatic hyperplasia; details: testosterone enanthate treated rats; 0.1 mg benzylglucosinolate
[2] = single dose of Epimedium tea
[3] = in vivo
[4] = target: T1, primary alpha receptor (estrogen receptor) (Homo sapiens, UniProt P03372)
T1 sequence (P03372 1-595): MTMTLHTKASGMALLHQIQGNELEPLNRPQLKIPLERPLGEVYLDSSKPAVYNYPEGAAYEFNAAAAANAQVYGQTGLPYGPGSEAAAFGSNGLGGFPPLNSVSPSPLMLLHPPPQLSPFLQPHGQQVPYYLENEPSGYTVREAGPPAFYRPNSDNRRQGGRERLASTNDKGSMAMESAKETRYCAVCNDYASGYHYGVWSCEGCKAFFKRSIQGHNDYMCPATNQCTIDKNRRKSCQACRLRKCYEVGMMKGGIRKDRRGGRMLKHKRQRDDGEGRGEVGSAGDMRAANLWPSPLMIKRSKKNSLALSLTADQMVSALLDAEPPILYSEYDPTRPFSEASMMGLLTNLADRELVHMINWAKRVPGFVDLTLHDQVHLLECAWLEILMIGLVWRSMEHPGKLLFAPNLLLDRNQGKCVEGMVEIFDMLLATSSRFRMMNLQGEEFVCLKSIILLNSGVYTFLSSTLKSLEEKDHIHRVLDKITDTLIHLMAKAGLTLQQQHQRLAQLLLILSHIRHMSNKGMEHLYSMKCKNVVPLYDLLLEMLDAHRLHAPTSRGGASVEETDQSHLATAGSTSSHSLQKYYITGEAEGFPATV

[5] = test system: late postmenopausal women; details: daily 60 mg icariin, 15 mg daidzein, 3 mg genistein; over 25 months; compared to placebo
estrogen receptor beta = estrogen receptor beta (Homo sapiens, UniProt Q92731)
Chain of estrogen receptor beta (Q92731 whole entry, species assumed): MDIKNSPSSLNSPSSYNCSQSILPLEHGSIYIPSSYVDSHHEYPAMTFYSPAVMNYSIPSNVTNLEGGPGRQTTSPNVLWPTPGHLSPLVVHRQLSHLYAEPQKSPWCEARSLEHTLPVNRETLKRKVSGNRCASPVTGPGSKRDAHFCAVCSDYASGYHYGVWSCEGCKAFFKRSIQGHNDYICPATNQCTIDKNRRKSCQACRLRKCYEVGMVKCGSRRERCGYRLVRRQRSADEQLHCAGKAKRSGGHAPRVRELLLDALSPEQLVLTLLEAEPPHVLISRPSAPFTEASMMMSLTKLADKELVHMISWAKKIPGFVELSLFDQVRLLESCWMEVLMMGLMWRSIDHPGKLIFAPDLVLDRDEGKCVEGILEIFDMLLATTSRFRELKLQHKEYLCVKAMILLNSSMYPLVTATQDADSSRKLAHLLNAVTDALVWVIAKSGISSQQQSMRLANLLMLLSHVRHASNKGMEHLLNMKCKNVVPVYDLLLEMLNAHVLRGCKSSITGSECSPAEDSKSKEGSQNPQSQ

[6] = test system: human prostate carcinoma PC-3 cells; details: in vitro
[7] = test system: human prostatic smooth muscle cells
[8] = male and female subjects 18-55 yrs
MMP9 = details: PC-3 cells
MMP2 = details: PC-3 cells
rats = details: for prostate and seminal vesicle size: 270 mg/kg daily injection, compared to all other treatments, P<0.05

## O=S(=O)(O)O/N=C(\Cc1ccccc1)S[C@@H]1O[C@H](CO)[C@@H](O)[C@H](O)[C@H]1O [Benzylglucosinolate]
[1]
  prostate weight: as effective at reducing prostate weight as 0.1 mg finasteride

## CC(C)=CCc1c(O)cc(O)c2c(=O)c(O)c(-c3ccc(O)cc3)oc12 [Desmethylicaritin]
[2]; desmethyl-icaritin 0.19 mg
  serum desmethylicaritin: not detected

## O=C(/C=C/c1ccc(O)c(O)c1)O[C@H](Cc1ccc(O)c(O)c1)C(=O)O [Rosmarinic acid]
COX-2 expression
  AP-1-dependent activation of COX-2 expression: potential preventative effects
[3]
  metabolic conversion: converted to 3-O-methyl rosmarinic acid
  time to enter the system after administration: ≤ 20 min

## COc1ccc(-c2oc3c(CC=C(C)C)c(O[C@@H]4O[C@H](CO)[C@@H](O)[C@H](O)[C@H]4O)cc(O)c3c(=O)c2O[C@@H]2O[C@@H](C)[C@H](O)[C@@H](O)[C@H]2O)cc1 [icariin, 5-hydroxy-2-(4-methoxyphenyl)-8-(3-methylbut-2-enyl)-7-[(2S,3R,4S,5S,6R)-3,4,5-trihydroxy-6-(hydroxymethyl)oxan-2-yl]oxy-3-[(2S,3R,4R,5R,6S)-3,4,5-trihydroxy-6-methyloxan-2-yl]oxychromen-4-one]
[2]; 12.6 mg icariin ingested
  peak serum icariin concentration: 2.1 ng/mL
[4]
  interaction with estrogen receptor alpha: not with the primary alpha receptor
[5]
  bone mass density / bone loss: increases bone density
Estrogen receptor beta
  interaction with estrogen receptor beta: interact with estrogen receptor beta; also recorded: targets the beta receptor over the alpha receptor

## COc1ccc(-c2oc3c(CC=C(C)C)c(O)cc(O)c3c(=O)c2O)cc1 [icaritin]
[2]
  time of peak icaritin level: 8 h
[6]
  growth of prostate carcinoma cells: inhibit prostate cancer cell growth
[6]; listed as Icaritin
  growth of prostate carcinoma cells: strongly inhibited growth
[7]
  apoptosis of human prostatic smooth muscle cells: inducing apoptosis; also recorded: induces apoptosis
  cyclin D1 and CDK4 expression: decreases
  growth of human prostatic smooth muscle cells: reduces the growth

## O=c1c(O)c(-c2ccc(O)c(O)c2)oc2cc(O)cc(O)c12 [quercetin, 2-(3,4-dihydroxyphenyl)-3,5,7-trihydroxy-4H-chromen-4-one]
[8]
  peak plasma concentration: 463 ng/mL
  time to peak plasma concentration: 3.5 h
MMP9; P<0.05
  MMP9 activity: significantly inhibited
MMP9; dose dependent manner
  MMP9 expression: inhibited
MMP2; P<0.05
  MMP2 activity: significantly inhibited
MMP2; dose dependent manner
  MMP2 expression: inhibited
rats
  prostate and seminal vesicle size: decreased significantly
rats; listed as Quercetin
  prostate and seminal vesicle size: effective at reducing prostate size
rats; 270 mg/kg group
  sperm quality and sexual organ function: positive effect
